Like-named read-outs stand apart in the source and are kept apart here.
What was measured:
Assay type in all cases: biochemical
VIM-1 = VIM-1 (Pseudomonas aeruginosa, UniProt A0A0F7KYQ8); assay: Enzymatic assay for determination of inhibition constants, reporter substrate method, purified VIM-1; conditions: for Ki: isolated MBL, competitive inhibition model;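 for all read-outs here: initial hydrolysis rates of a reporter β-lactam (imipenem, meropenem, cefotaxime or nitrocefin) followed by absorbance change, purified enzyme at 1–70 nM in 50 mM HEPES pH 7.5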
Experimental: (§1) The reaction rate was measured as the variation of absorbance observed upon substrate hydrolysis in a UV-Vis spectrophotometer or microplate reader at a wavelength of 300 nm (imipenem, meropenem), 260 nm (cefotaxime) or 482 nm (nitrocefin) in 50 mM HEPES buffer (pH 7.5) and in the presence of a purified MBL enzyme (such as VIM-1, VIM-2, VIM-4, NDM-1 and IMP-1, at a final concentration ranging 1-70 nM).
(§2) The inhibition constants (Ki) were determined on the basis of a model of competitive inhibition by analyzing the dependence of the ratio v0/vi (v0, hydrolysis velocity in the absence of inhibitor; vi, hydrolysis velocity in the presence of inhibitor) as a function of [I] as already described [Docquier J. D., Lamotte-Brasseur J., Galleni M., Amicosante G., Frère J. M., Rossolini G. M. (2003) J. Antimicrob. […] The slope of the plot of v0/vi vs [I], which corresponds to Km^S/(Km^S+[S])Ki (where Km^S is the Km value of the reporter substrate and [S] its concentration in the reaction mixture) and allowed the calculation of the Ki value. Alternatively, a Dixon plot analysis was carried out, by measuring the initial hydrolysis rates in the presence of variable concentrations of inhibitor and substrate.

VIM-2 = VIM-2 (Escherichia coli, UniProt Q5U7L7); assay: Enzymatic assay for determination of inhibition constants, reporter substrate method, purified VIM-2;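 note: purified VIM-2 hydrolysing a reporter substrate (imipenem, meropenem, cefotaxime or nitrocefin), reaction rate read as absorbance change, HEPES 50 mM at pH 7.5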
Experimental: as §1, §2

NDM-1 = NDM-1 (Klebsiella pneumoniae, UniProt C7C422); assay: Enzymatic assay for determination of inhibition constants, reporter substrate method, purified NDM-1; conditions: for Ki: isolated MBL, competitive inhibition model;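 for all read-outs here: purified enzyme activity followed as absorbance change from reporter substrate hydrolysis on a UV-Vis spectrophotometer or plate reader, 50 mM HEPES pH 7.5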
IMP-1 = IMP-1 (Serratia marcescens, UniProt P52699); assay: Enzymatic assay for determination of inhibition constants, reporter substrate method, purified IMP-1; conditions: for Ki: isolated MBL, competitive inhibition model; for % inhibition IMP-1: at 200 μM (maximal tested concentration);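 for all read-outs here: purified IMP-1 (1-70 nM) hydrolysing a reporter substrate, initial rates followed as absorbance change at 260, 300 or 482 nm in 50 mM HEPES pH 7.5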
VIM-4 = VIM-4 (Pseudomonas aeruginosa, UniProt Q8KRJ3); assay: Enzymatic assay for determination of inhibition constants, reporter substrate method, purified VIM-4; conditions: at 100 μM (maximal tested concentration);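 note: purified VIM-4 (1-70 nM) in 50 mM HEPES pH 7.5, reporter substrate hydrolysis rate tracked by absorbance change (nitrocefin 482 nm, imipenem or meropenem 300 nm, cefotaxime 260 nm)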
[1] = as listed in Table 2, read-out: Ki on VIM-2
[2] = isolated MBL, competitive inhibition model, read-out: Ki VIM-2
[3] = at 200 μM (maximal tested concentration)
[4] = at 100 μM (maximal tested concentration)

Sequence of NDM-1 (C7C422 29-270, looked up, species assumed): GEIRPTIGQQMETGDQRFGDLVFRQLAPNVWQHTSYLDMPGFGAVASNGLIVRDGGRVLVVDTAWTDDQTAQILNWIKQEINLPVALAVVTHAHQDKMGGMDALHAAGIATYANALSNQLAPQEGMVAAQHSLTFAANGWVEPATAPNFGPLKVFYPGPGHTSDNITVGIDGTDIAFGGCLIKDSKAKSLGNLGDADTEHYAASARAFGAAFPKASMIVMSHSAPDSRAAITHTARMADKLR
Sequence of IMP-1 (P52699 19-246, looked up, species assumed): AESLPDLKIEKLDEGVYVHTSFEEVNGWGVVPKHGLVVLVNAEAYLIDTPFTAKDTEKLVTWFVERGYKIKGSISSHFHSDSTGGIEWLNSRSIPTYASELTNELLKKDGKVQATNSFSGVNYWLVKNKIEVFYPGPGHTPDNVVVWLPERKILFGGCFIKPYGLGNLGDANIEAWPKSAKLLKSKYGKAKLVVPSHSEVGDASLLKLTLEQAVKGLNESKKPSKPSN

| Structure (SMILES) | Ki (VIM-1) [µM] | Ki (VIM-2; [2]) [µM] | Ki (NDM-1) [µM] | Ki (IMP-1) [µM] | % inhibition VIM-2 (VIM-2; [4]) [% at 100 μM] | also measured |
| --- | --- | --- | --- | --- | --- | --- |
| O=C(O)CCCn1c(-c2ccccc2)n[nH]c1=S [Compound 2, 4-(3-phenyl-5-sulfanylidene-4,5-dihydro-1H-1,2,4-triazol-4-yl)butanoic acid] | > 100 | 1 to 10 | > 100 | > 100 | – | Ki (VIM-2; [1]): 1 to 10 µM |
| O=C(O)c1ccccc1CNn1c(-c2ccccc2)n[nH]c1=S [Compound 5, 2-{[(3-phenyl-5-sulfanylidene-4,5-dihydro-1H-1,2,4-triazol-4-yl)amino]methyl}benzoic acid] | > 100 | 1 to 10 | > 100 | > 100 | – | Ki (VIM-2; [1]): 1 to 10 µM |
| Cc1ccccc1-c1n[nH]c(=S)n1CCc1ccccc1 [Compound 6, 3-(2-methylphenyl)-4-(2-phenylethyl)-4,5-dihydro-1H-1,2,4-triazole-5-thione] | – | – | > 100 | – | – | % inhibition VIM-1 (VIM-1; [3]): 60% at 200 μM; % inhibition VIM-2 (VIM-2; [3]): 60% at 200 μM; % inhibition VIM-4 (VIM-4): 50% at 100 μM; % inhibition IMP-1 (IMP-1): 80% at 200 μM |
| COc1ccc(O)c(-c2n[nH]c(=S)n2Cc2ccccc2)c1 [Compound 7, 4-benzyl-3-(2-hydroxy-5-methoxyphenyl)-4,5-dihydro-1H-1,2,4-triazole-5-thione] | < 1 | 1 to 10 | > 100 | > 100 | – | – |
| S=c1[nH]nc(-c2ccccc2)n1CCCc1ccccc1 [Compound 8, 3-phenyl-4-(3-phenylpropyl)-4,5-dihydro-1H-1,2,4-triazole-5-thione] | – | > 100 | > 100 | – | – | % inhibition IMP-1 (IMP-1): 70% at 200 μM |
| Sc1nnc(-c2ccccc2)n1Cc1ccccc1 [Compound 9, 4-benzyl-3-phenyl-4,5-dihydro-1H-1,2,4-triazole-5-thione] | – | > 100 | > 100 | 1 to 10 | – | – |
| COc1ccc(O)c(-c2n[nH]c(=S)n2CCc2ccccc2)c1 [Compound 10, 3-(2-hydroxy-5-methoxyphenyl)-4-(2-phenylethyl)-4,5-dihydro-1H-1,2,4-triazole-5-thione] | 1 to 10 | 1 to 10 | 1 to 10 | 10 to 100 | – | – |
| S=c1[nH]nc(-c2ccccc2)n1CCc1ccccc1 [Compound 11, 3-phenyl-4-(2-phenylethyl)-4,5-dihydro-1H-1,2,4-triazole-5-thione] | – | > 100 | > 100 | 1 to 10 | – | % inhibition VIM-1 (VIM-1; [3]): 75% at 200 μM; % inhibition VIM-4 (VIM-4): 75% at 100 μM |
| S=c1[nH]nc(-c2ccccc2)n1[C@@H]1C[C@H]1c1ccccc1 [Compound 20, 3-phenyl-4-[(1R,2S)-2-phenylcyclopropyl]-4,5-dihydro-1H-1,2,4-triazole-5-thione] | – | – | 10 to 100 | > 100 | – | % inhibition VIM-2 (VIM-2; [3]): 70% at 200 μM |
| Oc1ccc(CCn2c(-c3ccccc3)n[nH]c2=S)cc1 [Compound 31, 4-[2-(4-hydroxyphenyl)ethyl]-3-phenyl-4,5-dihydro-1H-1,2,4-triazole-5-thione] | 1 to 10 | 1 to 10 | 10 to 100 | 10 to 100 | – | % inhibition VIM-4 (VIM-4): 70% at 100 μM |
| O=C(O)c1ccccc1CCn1c(-c2ccc3ccccc3n2)n[nH]c1=S [Compound 36, 2-{2-[3-(Quinolin-2-yl)-5-sulfanylidene-4,5-dihydro-1H-1,2,4-triazol-4-yl]ethyl}benzoic acid] | – | > 100 | > 100 | > 100 | – | % inhibition VIM-4 (VIM-4): 85% at 100 μM |
| O=C(O)CCCn1c(-c2cccc(-c3ccccc3)c2)n[nH]c1=S [Compound 38, 5-(3-Biphenyl)-4-[3-carboxypropanyl]-1,2,4-triazole-3-thione] | > 100 | < 1 | > 100 | > 100 | – | – |
| O=C(O)c1ccccc1CCn1c(-c2ccc(OCc3ccccc3)cc2)n[nH]c1=S [Compound 40, 5-(4-Benzyloxyphenyl)-4-[2-(2-carboxyphenyl)ethyl]-1,2,4-triazole-3-thione] | > 100 | < 1 | > 100 | > 100 | – | – |
| Oc1ccc(CCn2c(-c3ccccc3)n[nH]c2=S)c(O)c1 [Compound 41, 4-[2-(2,4-Dihydroxyphenyl)ethyl]-5-phenyl-1,2,4-triazole-3-thione] | > 100 | > 100 | 10 to 100 | 10 to 100 | – | – |
| Oc1ccc(CCn2c(-c3ccccc3-c3ccccc3)n[nH]c2=S)c(O)c1 [Compound 43, 5-(2-Biphenyl)-4-[2-(2,4-dihydroxyphenyl)ethyl]-1,2,4-triazole-3-thione] | > 100 | > 100 | 10 to 100 | > 100 | – | – |
| Cn1cccc1-c1n[nH]c(=S)n1CCc1ccccc1C(=O)O [Compound 44] | – | < 1 | > 100 | > 100 | – | % inhibition VIM-4 (VIM-4): 80% at 100 μM |

| Structure (SMILES) | Ki (VIM-1) [µM] | Ki (VIM-2; [2]) [µM] | Ki (NDM-1) [µM] | Ki (IMP-1) [µM] | % inhibition VIM-2 (VIM-2; [4]) [% at 100 μM] | also measured |
| --- | --- | --- | --- | --- | --- | --- |
| O=C(O)CC(Cn1c(-c2ccccc2)n[nH]c1=S)c1ccccc1 (stereo not shown) [Compound 46, 3-Phenyl-4-(3-phenyl-5-thioxo-1,4-dihydro-1,2,4-triazol-4-yl)butyric acid] | > 100 | > 100 | > 100 | > 100 | – | – |
| Cn1cccc1-c1n[nH]c(=S)n1CCCC(=O)O [Compound 48, 4-[3-(1-Methyl-1H-pyrrol-2-yl)-5-thioxo-1,4-dihydro-1,2,4-triazol-4-yl]butyric acid] | – | > 100 | > 100 | > 100 | – | % inhibition VIM-4 (VIM-4): 75% at 100 μM |
| O=C(O)c1ccccc1CNn1c(-c2cccc(-c3ccccc3)c2)n[nH]c1=S [Compound 51, o-{[3-(3-Biphenylyl)-5-thioxo-1,4-dihydro-1,2,4-triazol-4-ylamino]methyl}benzoic acid] | – | – | > 100 | > 100 | 75 | – |
| O=C(O)c1cccc(Cn2c(-c3ccccc3)n[nH]c2=S)c1 [Compound 52, m-[(3-Phenyl-5-thioxo-1,4-dihydro-1,2,4-triazol-4-yl)methyl]benzoic acid] | – | – | > 100 | > 100 | 84 | – |
| O=C(O)c1cc(O)ccc1CCn1c(-c2ccccc2)n[nH]c1=S [Compound 53, 5-Hydroxy-2-[2-(3-phenyl-5-thioxo-1,4-dihydro-1,2,4-triazol-4-yl)ethyl]benzoic acid] | – | – | > 100 | > 100 | 90 | – |
| S=c1[nH]nc(-c2ccccc2)n1CCc1ccc(OCc2ccccc2)cc1 [Compound 54, 4-[4-(Benzyloxy)phenylethyl]-5-phenyl-1,2,4-triazole-3-thione] | – | 10 to 100 | > 100 | – | – | % inhibition IMP-1 (IMP-1): 60% at 200 μM |
| O=C(O)c1ccc(Cn2c(-c3ccccc3)n[nH]c2=S)cc1 [Compound 55, p-[(3-Phenyl-5-thioxo-1,4-dihydro-1,2,4-triazol-4-yl)methyl]benzoic acid] | – | – | > 100 | > 100 | – | % inhibition VIM-2 (VIM-2; [3]): 80% at 200 μM; % inhibition VIM-4 (VIM-4): 80% at 100 μM |
| O=C(O)c1ccccc1CCn1c(-c2ccc3ncccc3c2)n[nH]c1=S [Compound 56, 2-{2-[3-(Quinolin-6-yl)-5-sulfanylidene-4,5-dihydro-1H-1,2,4-triazol-4-yl]ethyl}benzoic acid] | – | – | > 100 | > 100 | 85 | – |
| O=C(O)c1ccccc1CCn1c(-c2ccc[nH]2)n[nH]c1=S [Compound 57, o-{2-[3-(1H-Pyrrol-2-yl)-5-thioxo-1,4-dihydro-1,2,4-triazol-4-yl]ethyl}benzoic acid] | – | – | – | > 100 | – | % inhibition VIM-2 (VIM-2; [3]): 80% at 200 μM; % inhibition VIM-4 (VIM-4): 65% at 100 μM; % inhibition NDM-1 (NDM-1; [3]): 60% at 200 μM |
| O=C(O)c1ccccc1CCn1c(-c2ccsc2)n[nH]c1=S [Compound 58, o-{2-[3-(3-Thienyl)-5-thioxo-1,4-dihydro-1,2,4-triazol-4-yl]ethyl}benzoic acid] | – | – | > 100 | > 100 | 85 | – |
| O=C(O)CCCCCCCn1c(-c2ccccc2)n[nH]c1=S [Compound 59, 8-(3-Phenyl-5-thioxo-1,4-dihydro-1,2,4-triazol-4-yl)octanoic acid] | – | – | > 100 | > 100 | 90 | – |
| O=C(O)C(SCCn1c(-c2ccccc2)n[nH]c1=S)c1ccccc1 (stereo not shown) [Compound 60, Phenyl[2-(3-phenyl-5-thioxo-1,4-dihydro-1,2,4-triazol-4-yl)ethylthio]acetic acid] | – | – | > 100 | > 100 | 96 | – |
| Nc1ccc(CCn2c(-c3ccccc3)n[nH]c2=S)c(C(=O)O)c1 [Compound 61, 5-Amino-2-[2-(3-phenyl-5-thioxo-1,4-dihydro-1,2,4-triazol-4-yl)ethyl]benzoic acid] | – | – | > 100 | > 100 | 75 | – |
| O=C(O)CSCCn1c(-c2ccccc2)n[nH]c1=S [Compound 65, [2-(3-Phenyl-5-thioxo-1,4-dihydro-1,2,4-triazol-4-yl)ethylthio]acetic acid] | – | – | > 100 | > 100 | 90 | – |
| S=c1[nH]nc(-c2ccccc2)n1CCCSc1ccccc1 [Compound 79, 5-Phenyl-4-[3-(phenylthio)propyl]-2,4-dihydro-1,2,4-triazole-3-thione] | – | – | > 100 | > 100 | 72 | % inhibition VIM-1 (VIM-1; [4]): 82% at 100 μM; % inhibition VIM-4 (VIM-4): 71% at 100 μM |
| Cc1ccccc1-c1n[nH]c(=S)n1/N=C/c1ccccc1C(=O)O [II, reference compound] | – | – | – | – | – | Ki (VIM-2; [1]): 1 to 10 µM |
